For this assay, the target named is T1, human EP4 receptor (Homo sapiens, UniProt P35408).
T1 construct: Eurofins Cerep
The experiment in a line: human EP4 receptor antagonist screen (Eurofins Cerep; cAMP HTRF, PGE2 30 nM stimulus, CHO cells). In kind it is cell-based. The settings on record: at 100 nM, EP4(h) antagonist effect, human recombinant (CHO cells), 10 min RT, read-out: % inhibition of control reference agonist response (PGE2). As to the method: Compounds were assayed at Eurofins Cerep using the human EP4 receptor antagonist screen. Cellular antagonist effect was calculated as a % inhibition of control reference agonist response for each target (PGE2). In each EP4(h) experiment, a reference antagonist compound, GW627368X, was tested concurrently with the test compounds, and the data were compared with historical values determined at Eurofins. The experiments were accepted in accordance with Eurofins validation Standard Operating Procedure.

The values below come from patent US11459331B2, “Chemical compounds” (Avista Pharma Solutions, Inc., priority 2019, dated 2022).

Where only a bound is given, the exact number is not on record here.

T1 sequence (P35408 whole entry): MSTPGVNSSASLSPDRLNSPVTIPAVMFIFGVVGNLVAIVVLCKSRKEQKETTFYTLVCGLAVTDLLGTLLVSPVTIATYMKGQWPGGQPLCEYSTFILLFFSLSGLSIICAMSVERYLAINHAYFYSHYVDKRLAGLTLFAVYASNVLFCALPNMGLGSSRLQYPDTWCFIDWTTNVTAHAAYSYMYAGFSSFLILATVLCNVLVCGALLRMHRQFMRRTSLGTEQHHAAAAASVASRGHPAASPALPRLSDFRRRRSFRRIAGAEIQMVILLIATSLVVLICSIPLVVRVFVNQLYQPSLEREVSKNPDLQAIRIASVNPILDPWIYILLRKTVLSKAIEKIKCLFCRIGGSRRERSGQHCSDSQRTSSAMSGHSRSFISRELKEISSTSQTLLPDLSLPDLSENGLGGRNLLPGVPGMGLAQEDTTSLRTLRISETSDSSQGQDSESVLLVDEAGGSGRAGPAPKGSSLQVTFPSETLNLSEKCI

With `Cc1ccc(S(=O)(=O)NC(=O)NCCc2ccc(-c3c(-c4ccon4)nc4c(C)nc(C)cn34)cc2)cc1` [Compound 15, 1-[2-[4-(2-isoxazol-3-yl-6,8-dimethyl-imidazo[1,2-a]pyrazin-3-yl)phenyl]ethyl]-3-(p-tolylsulfonyl)urea], the inhibition at 0.1 µM was ≥ 50%. As for `CCc1nc2c(C)nc(-c3ccncc3)cn2c1-c1ccc(CCNC(=O)NS(=O)(=O)c2ccc(C)cc2)cc1` [Compound 13, 1-[2-[4-[2-ethyl-8-methyl-6-(4-pyridyl)imidazo[1,2-a]pyrazin-3-yl]phenyl]ethyl]-3-(p-tolylsulfonyl)urea], the figure is ≥ 50%. For the compound `CCc1nc2c(C)nc(C)cn2c1-c1ccc(CCNC(=O)NS(=O)(=O)c2ccccc2C)cc1` [Compound 2, 1-[2-[4-(2-ethyl-6,8-dimethyl-imidazo[1,2-a]pyrazin-3-yl)phenyl]ethyl]-3-(o-tolylsulfonyl)urea], the inhibition at 0.1 µM is ≥ 50%. As for `CCc1nc2c(C)nc(C)cn2c1-c1ccc(CCNC(=O)NS(=O)(=O)c2ccc(Cl)cc2)cc1` [Compound 1, 1-(4-chlorophenyl)sulfonyl-3-[2-[4-(2-ethyl-6,8-dimethyl-imidazo[1,2-a]pyrazin-3-yl)phenyl]ethyl]urea], the inhibition at 0.1 µM is ≥ 50%.
